These results are taken from US20120165384A1, “INHIBITION OF HISTONE ACETYLTRANSFERASES BY CTK7A AND METHODS THEREOF” (JAWAHARLAL NEHRU CENTRE FOR ADVANCED SCIENTIFIC RESEARCH, priority 2009, published 2012).

Series [1] concerns NPM1 and GAPDH expression in KB cells. As to the kind of experiment: NPM1 and GAPDH expression in treated KB cells. The format is cell-based. To be noted: 24 h. The protocol: (§1) KB cells were maintained in Dullbecco's modified Eagle medium (DMEM) with 10% fetal bovine serum (FBS) at 37° C. with a 5% CO2 atmosphere in a humidified incubator. For IFNγ and GSNO treatment, KB cells were incubated in the presence of IFNγ 10 ng ml^−1 for an additional 16 h and 24 h respectively. Immunofluorescent staining of cells for confocal microscopy was carried out as described previously^30. CTK7A treatment was done for 24 h followed by acid extraction of histone and immunoblotting as per standard protocol^31. For whole cell extract preparation RIPA buffer (Tris-HCl 50 mM, pH 7.4 NP-40 1%, Na-deoxycholate 0.25%, NaCl 150 mM, EDTA 1 mM, Phenylmethylsulfonyl fluoride (PMSF), 1 mM Na3VO4, 1 mM NaF and protease inhibitor cocktail) was used.

Series [2] deals with NPM1 and GAPDH acetylation in KB cells. As to the kind of experiment: NPM1 and GAPDH acetylation in KB cells (anti-acetyl lysine immunoprecipitation, western blotting). It counts as cell-based. On the procedure: KB cells were maintained in Dullbecco's modified Eagle medium (DMEM) with 10% fetal bovine serum (FBS) at 37° C. with a 5% CO2 atmosphere in a humidified incubator. For IFNγ and GSNO treatment, KB cells were incubated in the presence of IFNγ 10 ng ml^−1 for an additional 16 h and 24 h respectively. Immunofluorescent staining of cells for confocal microscopy was carried out as described previously^30. CTK7A treatment was done for 24 h followed by acid extraction of histone and immunoblotting as per standard protocol^31.
Whole cell extract were prepared using RIPA buffer as mentioned above. The pre-blocked protein-G sepharose-bound antibody (4 μg) was incubated with 500 μg whole cell lysate overnight at 4° C. After extensive washes, bead-bound protein were analysed by western blotting with indicated antibodies. For HDAC inhibitors treatment, 5 mM sodium butyrate, 5 mM nicotiamide and 100 ng ml^−1 TSA were added 10 h before cells were harvest^36.

The test system of series [3] is Histone H3K14 acetylation in KB cells. The experiment in a line: H3K14 acetylation in GSNO treated KB cells (western blotting). The format is cell-based. To be noted: concentration dependent. On the procedure:
as §1

Series [4] deals with human melanocytes. The following applies: earlier report, cited from earlier work.
Series [5] addresses T1, PCAF (Homo sapiens, UniProt Q92831).
T1 construct: Recombinant baculovirus expressing full-length FLAG-tagged CARM1,CBP and PCAF; FLAG; made in house; host or cells: baculovirus-infected Sf21 cells
The experiment in a line: HAT assay with recombinant PCAF. The format is biochemical. On the procedure:
(§2) Recombinant baculovirus expressing full-length FLAG-tagged CARM1,CBP and PCAF were purified by immunoaffinity chromatography using M2-agarose beads followed by elution with FLAG peptide. Baculovirus-expressed full-length hexahistidine-tagged p300, and G9a were purified using Ni-NTA affinity chromatography as described previously^30.
(§3) HAT gel fluorography/autoradiography assays were performed as previously reported^30. Kinetic analysis of p300 HAT inhibition was performed as reported earlier^31 in the presence of (0, 30 and 50 μM) CTK7A. The obtained values were plotted as a lineweaver burk plot using Graphpad Prism software. For p300 Autoacetylation assay, reactions of p300 full length (80 ng) were carried out in HAT assay buffer at 30° C. for 10 minutes with or without the protein (NPM1) followed by addition of 1 μl of 4.7 Ci/mmol [^3H] acetyl CoA (NEN-PerkinElmer) and were further incubated for another 10 min in a 30 μl reaction. GAPDH was used as positive control. The radio-labeled acetylated p300 were processed by fluorography followed by autoradiography.

Series [6] concerns the target p300 (Homo sapiens, UniProt Q09472). The experiment in a line: HAT assay with recombinant p300. The format is biochemical. Set-up: hexahistidine; made in house; host or cells: baculovirus-infected Sf21 cells. On the procedure:
as §2, §3

The target in series [7] is T2, full length p300 (Homo sapiens, UniProt Q09472).
T2 construct: hexahistidine; made in house; host or cells: baculovirus-infected Sf21 cells
The experiment in a line: p300 autoacetylation assay in vitro (3H-acetyl CoA, fluorography/autoradiography). The format is biochemical. The following applies: dose dependent; 3H-acetyl-CoA. The protocol:
as §3

A short description of series [8]: Solubility test in water. The format is physicochemical. On the procedure: To a solution of curcumin in methanol (10 mg, 0.027 Mmol) […]. After incubation for 24 h, the solvent was evaporated in vacuum. The residue […] was purified with repeated recrystallization and filtration method using TLC (CHCl3/MeOH=4:1; Rf=0.5). This gave CTK7 as a dark orange powder (7.18 mg, 55%) which was analyzed by H^1 NMR, Melting point test, Solubility test and ESI-MS.
To a solution of CTK7 in methanol (50 mg, 0.1031 mmol), (10 ml) of Sodium ethoxide was added ([…], 0.1175 mmol) and the reaction mixture was stirred at room temperature for 90 minutes. The solvent was evaporated in vacuum and the residue was washed with hexane, diethyl ether and ethyl acetate. Product was confirmed through H^1 NMR, Solubility test, melting point.

In series [9] the test system is GAPDH localisation in KB cells. The experiment in a line: GAPDH nuclear translocation in KB cells (immunofluorescence). The format is cell-based. The following applies: 10 ng ml−1, 16 h. The protocol:
as §1

T1 sequence (Q92831 whole entry, species assumed): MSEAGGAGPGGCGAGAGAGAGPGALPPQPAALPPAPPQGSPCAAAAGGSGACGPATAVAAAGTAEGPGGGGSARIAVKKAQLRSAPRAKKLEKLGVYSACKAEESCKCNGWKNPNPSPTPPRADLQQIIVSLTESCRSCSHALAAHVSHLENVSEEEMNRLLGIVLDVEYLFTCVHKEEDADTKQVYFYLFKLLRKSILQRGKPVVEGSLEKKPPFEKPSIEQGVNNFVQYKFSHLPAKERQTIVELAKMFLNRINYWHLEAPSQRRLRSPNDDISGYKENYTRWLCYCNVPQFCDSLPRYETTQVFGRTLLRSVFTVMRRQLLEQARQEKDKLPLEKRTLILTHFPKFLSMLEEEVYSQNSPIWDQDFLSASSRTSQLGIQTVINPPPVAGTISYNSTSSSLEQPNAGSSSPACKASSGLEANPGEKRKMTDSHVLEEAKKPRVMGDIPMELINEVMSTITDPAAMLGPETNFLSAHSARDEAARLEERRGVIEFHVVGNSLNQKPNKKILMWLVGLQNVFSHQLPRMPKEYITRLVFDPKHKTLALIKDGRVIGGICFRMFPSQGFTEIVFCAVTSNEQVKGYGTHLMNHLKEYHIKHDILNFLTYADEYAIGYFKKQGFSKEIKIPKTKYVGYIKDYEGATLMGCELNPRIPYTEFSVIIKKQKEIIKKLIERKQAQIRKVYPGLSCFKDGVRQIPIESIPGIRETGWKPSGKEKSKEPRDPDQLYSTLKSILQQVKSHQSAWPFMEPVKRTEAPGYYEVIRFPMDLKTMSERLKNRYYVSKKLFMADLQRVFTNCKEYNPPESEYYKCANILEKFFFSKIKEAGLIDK
T2 sequence (Q09472 whole entry, species assumed): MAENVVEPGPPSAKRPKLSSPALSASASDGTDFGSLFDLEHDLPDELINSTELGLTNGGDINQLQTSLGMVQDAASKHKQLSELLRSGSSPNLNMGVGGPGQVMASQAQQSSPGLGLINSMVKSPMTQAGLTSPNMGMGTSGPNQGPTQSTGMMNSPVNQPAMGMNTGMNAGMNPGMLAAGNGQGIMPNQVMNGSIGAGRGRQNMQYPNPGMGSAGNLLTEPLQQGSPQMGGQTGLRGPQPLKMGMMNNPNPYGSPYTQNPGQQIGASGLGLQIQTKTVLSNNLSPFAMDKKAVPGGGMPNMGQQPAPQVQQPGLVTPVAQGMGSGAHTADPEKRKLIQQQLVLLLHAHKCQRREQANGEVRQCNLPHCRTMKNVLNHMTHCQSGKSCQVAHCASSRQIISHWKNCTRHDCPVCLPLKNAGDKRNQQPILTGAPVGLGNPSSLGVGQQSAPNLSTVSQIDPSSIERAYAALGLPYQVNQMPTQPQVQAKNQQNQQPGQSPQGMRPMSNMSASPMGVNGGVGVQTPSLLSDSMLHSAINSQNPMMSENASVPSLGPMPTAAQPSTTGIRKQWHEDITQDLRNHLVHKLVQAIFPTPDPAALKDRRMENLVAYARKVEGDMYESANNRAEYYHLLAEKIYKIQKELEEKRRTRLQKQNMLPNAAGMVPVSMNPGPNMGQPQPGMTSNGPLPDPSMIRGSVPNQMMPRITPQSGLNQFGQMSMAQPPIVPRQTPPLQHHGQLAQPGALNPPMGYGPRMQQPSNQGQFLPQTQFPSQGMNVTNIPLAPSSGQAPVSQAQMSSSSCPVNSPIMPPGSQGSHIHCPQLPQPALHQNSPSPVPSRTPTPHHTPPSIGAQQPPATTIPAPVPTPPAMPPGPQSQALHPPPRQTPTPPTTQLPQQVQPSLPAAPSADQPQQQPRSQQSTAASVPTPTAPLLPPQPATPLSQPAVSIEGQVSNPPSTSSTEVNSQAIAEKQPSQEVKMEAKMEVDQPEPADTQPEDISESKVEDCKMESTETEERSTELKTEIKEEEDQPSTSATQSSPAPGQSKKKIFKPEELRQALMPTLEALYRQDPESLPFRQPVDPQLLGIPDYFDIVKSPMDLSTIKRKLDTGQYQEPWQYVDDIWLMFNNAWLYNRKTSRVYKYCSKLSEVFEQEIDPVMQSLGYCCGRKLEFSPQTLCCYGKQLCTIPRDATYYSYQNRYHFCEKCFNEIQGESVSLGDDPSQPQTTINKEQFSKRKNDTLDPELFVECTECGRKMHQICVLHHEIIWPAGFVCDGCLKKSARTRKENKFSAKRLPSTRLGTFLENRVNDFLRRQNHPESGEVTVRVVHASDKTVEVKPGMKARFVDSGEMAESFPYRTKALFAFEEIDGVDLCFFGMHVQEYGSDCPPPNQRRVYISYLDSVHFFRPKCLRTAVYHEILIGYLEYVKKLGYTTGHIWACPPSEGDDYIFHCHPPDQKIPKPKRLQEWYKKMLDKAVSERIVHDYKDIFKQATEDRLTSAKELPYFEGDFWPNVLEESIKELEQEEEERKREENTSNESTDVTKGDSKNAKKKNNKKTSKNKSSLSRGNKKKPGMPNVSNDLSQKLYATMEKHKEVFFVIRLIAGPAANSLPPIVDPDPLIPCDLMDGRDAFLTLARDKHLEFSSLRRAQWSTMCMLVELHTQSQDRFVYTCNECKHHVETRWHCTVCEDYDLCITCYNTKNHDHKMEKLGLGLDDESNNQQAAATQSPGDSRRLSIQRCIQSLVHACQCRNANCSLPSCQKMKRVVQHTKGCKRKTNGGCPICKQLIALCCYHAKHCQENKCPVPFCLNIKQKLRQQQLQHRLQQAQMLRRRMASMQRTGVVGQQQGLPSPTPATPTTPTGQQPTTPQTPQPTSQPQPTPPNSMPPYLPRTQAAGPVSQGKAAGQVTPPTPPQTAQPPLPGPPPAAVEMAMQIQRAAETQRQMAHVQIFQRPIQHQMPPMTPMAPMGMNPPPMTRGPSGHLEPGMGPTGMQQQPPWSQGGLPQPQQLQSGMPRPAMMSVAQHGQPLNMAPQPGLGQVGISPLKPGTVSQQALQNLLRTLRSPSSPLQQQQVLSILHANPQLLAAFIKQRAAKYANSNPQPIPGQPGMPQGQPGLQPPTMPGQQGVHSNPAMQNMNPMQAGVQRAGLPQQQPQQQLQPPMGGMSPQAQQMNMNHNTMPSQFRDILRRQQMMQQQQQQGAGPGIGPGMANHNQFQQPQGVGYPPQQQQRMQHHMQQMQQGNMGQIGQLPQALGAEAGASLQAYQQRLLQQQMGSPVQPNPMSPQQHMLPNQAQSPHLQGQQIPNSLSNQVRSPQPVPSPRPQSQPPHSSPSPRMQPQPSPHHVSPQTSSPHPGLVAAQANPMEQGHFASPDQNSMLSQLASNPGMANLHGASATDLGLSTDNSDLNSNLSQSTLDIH
Chain of p300 (Q09472 whole entry, species assumed): as above

As for `N[C@@H](CCC(=O)N[C@@H](CSN=O)C(=O)NCC(=O)O)C(=O)O` [GSNO, S-nitroso-glutathione], in [1], the “expression of GAPDH” value is on record as “enhanced in a concentration dependent manner” and the “expression of NPM1” value was “enhanced in a concentration dependent manner”. Also, in series [2] (200 μM GSNO, 24 h), the “acetylation of GAPDH” value is on record as “gets acetylated” and the “acetylation of NPM1” value is reported as “dramatically enhanced”. Also, the “level of H3K14 acetylation” value in series [3] was “enhanced”.
As to `CC(C)(COP(=O)(O)OP(=O)(O)OC[C@H]1O[C@@H](n2cnc3c(N)ncnc32)[C@H](O)[C@@H]1OP(=O)(O)O)[C@@H](O)C(=O)NCCC(=O)NCCSC(=O)[C@@H](N)CCCCN` [Lysyl-CoA, lysyl-CoA], the “proliferation of human melanocytes” value in [4] was “inhibited”. In addition, the “senescence of human melanocytes” value in [4] (with expression SA-β-gal) is recorded as “induced senescence-like growth arrest”.
With `COc1cc(/C=C/C(=O)CC(=O)/C=C/c2ccc(O)c(OC)c2)ccc1O` [curcumin, reference compound], the “inhibition of PCAF HAT activity” value in series [5] is “inhibitory effect”. For the same molecule, in series [6], the “inhibition of p300 HAT activity” value was “inhibitory effect”.
With `CC(=N)NCc1cccc(CN)c1` [1400 W, N-(3-(Aminomethyl)benzyl)acetamidine], in series [2] (100 μM), the “effect on IFNγ-enhanced GAPDH and NPM1 acetylation” value is “abolished or reduced”.
Consider “NPM1: Nucleophosmin, histone chaperone, multifunctional nucleolar protein”, for which, in series [7], the “activation of autoacetylation of p300” value was “activate”.
Consider `COc1cc(C=Cc2cc(C=Cc3ccc(O)c(OC)c3)n(-c3ccc(C(=O)O)cc3)n2)ccc1O` [CTK7, Hydrazinobenzoylcurcumin], for which, in series [8], the solubility in water result is listed as “Insoluble”.

B1: IFNγ: interferon γ, a proinflamatory cytokine that activates iNOS to produce NO (protein, UniProt P01579 24-161, looked up)
Interferon gamma: QDPYVKEAENLKKYFNAGHSDVADNGTLFLGILKNWKEESDRKIMQSQIVSFYFKLFKNFKDDQSIQKSVETIKEDMNVKFFNSNKKKRDDFEKLTNYSVTDLNVQRKAIHELIQVMAELSPAAKTGKRKRSQMLFRG
Turning to B1, the “GAPDH and NPM1 acetylation” value in [2] (IFNγ 10 ng ml−1, 16 h, NO-dependent) is on record as “enhanced”. For the same molecule, the “translocation of GAPDH to nucleus” value in [9] is given as “induce the translocation”.
